Assay results reported in US6660885B2, “Polycyclic aryl and heteroaryl substituted benzenes useful for selective inhibition of the coagulation cascade” (Pharmacia Corporation, priority 2000, dated 2003).
Where two headings read alike, the source gives them in different places.

Key:
Format in all cases: biochemical
[1] = molecular target: T1, trypsin, type IX from porcine pancreas (Sus scrofa, UniProt P00761); test: Trypsin Assay (L-BAPNA, 405 nm)
T1 construct: purchased Sigma, St. Louis Mo; host or cells: porcine pancreas
Protocol: 5 ug/ml trypsin, type IX^0 from porcine pancreas and 0.375 mM N-α-Benzoyl-L-arginine-p-nitroanilide (L-BAPNA) are added to a 96-well assay plate containing either inhibitor or buffer (50 mM Tris-HCl, pH 8.0, 100 mM NaCl, 0.1% BSA). The reactions, in a final volume of 100 ul are measured immediately at 405 nm to determine background absorbance. The plate is incubated at room temperature for 60 min, at which time the rate of hydrolysis of the substrate is measured by monitoring the reaction at 405 nm for the release of p-nitroaniline. Percent inhibition of trypsin activity is calculated from OD405nm value from the experimental and control sample.
(§1) Recombinant soluble TF, consisting of amino acids 1-219 of the mature protein sequence was expressed in E. coli and purified using a Mono Q Sepharose FPLC. Recombinant human Vlla was purchased from American Diagnostica, Greenwich Conn. and chromogenic substrate N-Methylsulfonyl-D-phe-gly-arg-p-nitroaniline was prepared by American Peptide Company, Inc., Sunnyvale, Calif. Factor Xa was obtained from Enzyme Research Laboratories, South Bend Ind., thrombin from Calbiochem, La Jolla, Calif., and trypsin and L-BAPNA from Sigma, St. Louis Mo. The chromogenic substrates S-2765 and S-2238 were purchased from Chromogenix, Sweden.

human thrombin = human thrombin (Homo sapiens, UniProt P00734); test: Thrombin Assay (chromogenic substrate, 405 nm); settings: for IC50: read-out: Thrombin II IC50; for Thrombin II percent inhibition: at 30 (uM)
Protocol: 0.28 nM human thrombin and 0.06 mM H-D-Phenylalanyl-L-pipecolyl-L-arginine-p-nitroaniline dihydrochloride are added to a 96-well assay plate containing either inhibitor or buffer (50 mM Tris-HCl, pH 8.0, 100 mM NaCl, 0.1% BSA). The reaction, in a final volume of 100 ul is measured immediately at 405 nm to determine background absorbance. The plate is incubated at room temperature for 60 min, at which time the rate of hydrolysis of the substrate is measured by monitoring the reaction at 405 nm for the release of p-nitroaniline. Percent inhibition of thrombin activity is calculated from OD405nm value from the experimental and control sample.

human factor Xa = molecular target: T2, human factor Xa (Homo sapiens, UniProt P00742); test: Xa Assay (chromogenic substrate S-2765, 405 nm)
T2 construct: leads from XII to XIIa to XIa to IXa and to the conversion of X to Xa; purchased Enzyme Research Laboratories, South Bend Ind
Protocol: 0.3 nM human factor Xa and 0.15 mM N-a-Benzyloxycarbonyl-D-arginyl-L-glycyl-L-arginine-p-nitroaniline-dihydrochloride (S-2765) are added to a 96-well assay plate containing either inhibitor or buffer (50 mM Tris-HCl, pH 8.0, 100 mM NaCl, 0.1% BSA). The reaction, in a final volume of 100 ul is measured immediately at 405 nm to determine background absorbance. The plate is incubated at room temperature for 60 min, at which time the rate of hydrolysis of the substrate is measured by monitoring the reaction at 405 nm for the release of p-nitroaniline. Percent inhibition of Xa activity is calculated from OD405nm value from the experimental and control sample.
as §1

[2] = molecular target: T3, recombinant soluble tissue factor and recombinant human factor VIIa (TF-VIIa) (Homo sapiens, UniProt P08709); test: TF-VIIa Assay (chromogenic substrate hydrolysis, 405 nm); settings: read-out: IF-VIIA IC50
T3 construct: purchased American Diagnostica, Greenwich Conn; soluble TF made in house in E. coli
T3 sequence (P08709 213-466 limits assumed): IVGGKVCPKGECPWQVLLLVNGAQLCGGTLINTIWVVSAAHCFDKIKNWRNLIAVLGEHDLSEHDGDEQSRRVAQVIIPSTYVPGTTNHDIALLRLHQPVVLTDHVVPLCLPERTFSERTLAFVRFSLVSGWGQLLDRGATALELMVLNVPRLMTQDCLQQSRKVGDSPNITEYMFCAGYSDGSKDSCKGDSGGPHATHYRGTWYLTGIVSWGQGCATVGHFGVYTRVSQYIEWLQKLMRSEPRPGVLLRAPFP
T3 sequence (P08709 61-212 limits assumed): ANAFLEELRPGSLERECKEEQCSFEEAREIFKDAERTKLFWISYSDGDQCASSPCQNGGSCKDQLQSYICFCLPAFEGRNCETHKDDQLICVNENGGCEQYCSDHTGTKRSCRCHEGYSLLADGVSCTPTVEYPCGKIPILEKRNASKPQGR
T3 sequence (P13726 33-251 partner limits assumed): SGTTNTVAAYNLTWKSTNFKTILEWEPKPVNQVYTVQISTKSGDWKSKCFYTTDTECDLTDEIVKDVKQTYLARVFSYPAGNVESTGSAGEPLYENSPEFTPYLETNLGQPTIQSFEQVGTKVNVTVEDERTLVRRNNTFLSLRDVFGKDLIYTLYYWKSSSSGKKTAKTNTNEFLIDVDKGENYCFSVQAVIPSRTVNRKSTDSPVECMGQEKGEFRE
Protocol: In this assay 100 nM recombinant soluble tissue factor and 2 nM recombinant human factor VIla are added to a 96-well assay plate containing 0.4 mM of the substrate, N-Methylsulfonyl-D-phe-gly-arg-p-nitroaniline and either inhibitor or buffer (5 mM CaCI2, 50 mM Tris-HCl, pH 8.0, 100 mM NaCl, 0.1% BSA). The reaction, in a final volume of 100 ul is measured immediately at 405 nm to determine background absorbance. The plate is incubated at room temperature for 60 min, at which time the rate of hydrolysis of the substrate is measured by monitoring the reaction at 405 nm for the release of p-nitroaniline. Percent inhibition of TF-VIIa activity is calculated from OD405nm value from the experimental and control sample.

T2 sequence (P00742 235-488 limits assumed): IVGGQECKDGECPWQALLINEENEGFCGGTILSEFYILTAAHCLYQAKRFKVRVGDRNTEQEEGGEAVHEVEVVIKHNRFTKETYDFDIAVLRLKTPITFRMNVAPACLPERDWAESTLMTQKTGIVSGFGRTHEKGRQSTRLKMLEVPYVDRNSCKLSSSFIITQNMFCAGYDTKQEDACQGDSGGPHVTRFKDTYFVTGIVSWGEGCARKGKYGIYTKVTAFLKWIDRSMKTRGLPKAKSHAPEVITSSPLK
T2 sequence (P00742 41-179 limits assumed): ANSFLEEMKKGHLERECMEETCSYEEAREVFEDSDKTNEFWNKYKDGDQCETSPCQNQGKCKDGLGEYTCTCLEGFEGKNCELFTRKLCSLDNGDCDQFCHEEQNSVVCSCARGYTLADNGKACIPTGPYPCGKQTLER
T1 sequence (P00761 9-231): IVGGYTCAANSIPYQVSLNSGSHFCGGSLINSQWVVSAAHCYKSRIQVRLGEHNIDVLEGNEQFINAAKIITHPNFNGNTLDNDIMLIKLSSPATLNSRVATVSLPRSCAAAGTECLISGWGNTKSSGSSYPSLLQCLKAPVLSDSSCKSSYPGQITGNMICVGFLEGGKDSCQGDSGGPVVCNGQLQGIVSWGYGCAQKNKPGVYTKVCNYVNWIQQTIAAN

SMILES: O=C(NCC1CCNCC1)c1cc(NS(=O)(=O)Cc2ccccc2)ccc1Sc1ccccc1 [Example 1]
- IC50 ([1]; read-out: Trpysin II IC50): 0.3 µM
- IC50 (human thrombin): > 30 µM
- IC50 (human factor Xa): > 30 µM

SMILES: CN(C)c1ccc(CNC(=O)c2cc(NS(=O)(=O)Cc3ccccc3)ccc2Sc2ccccc2)cc1 [Example 2]
- IC50 ([1]; read-out: Trpysin II IC50): > 30 µM
- IC50 (human thrombin): > 30 µM

SMILES: O=C(NCc1ccncc1)c1cc(NS(=O)(=O)Cc2ccccc2)ccc1Sc1ccccc1 [Example 3]
- IC50 ([1]; read-out: Trpysin II IC50): > 30 µM
- IC50 (human thrombin): > 30 µM

SMILES: Cl.N=C(N)c1ccc(CNC(=O)c2cc(NS(=O)(=O)Cc3ccccc3)ccc2Sc2ccccc2)cc1 [Example 4]
- IC50 [1]: 0.3 µM
- Thrombin II percent inhibition (human thrombin): 22% at 30

SMILES: N=C(N)c1cccc(CNC(=O)c2cc(NS(=O)(=O)Cc3ccccc3)ccc2Sc2ccccc2)c1 [Example 5]
- IC50 [2]: > 30 µM
- IC50 ([1]; read-out: Trpysin II IC50): 23 µM
- Thrombin II percent inhibition (human thrombin): 43% at 30
- Factor Xa percent inhibition (human factor Xa; at 30 (uM)): 7% at 30

SMILES: N=C(N)NCCCNC(=O)c1cc(NS(=O)(=O)Cc2ccccc2)ccc1Sc1ccccc1 [Example 6]
- IC50 [2]: > 100 µM
- IC50 ([1]; read-out: Trpysin II IC50): > 100 µM
- IC50 (human thrombin): > 100 µM
- IC50 (human factor Xa): > 100 µM

SMILES: N=C(N)NCCCCNC(=O)c1cc(NS(=O)(=O)Cc2ccccc2)ccc1Sc1ccccc1 [Example 7]
- IC50 [2]: > 100 µM
- IC50 ([1]; read-out: Trpysin II IC50): > 100 µM
- IC50 (human thrombin): > 100 µM
- IC50 (human factor Xa): > 100 µM

SMILES: N=C(N)NCCCCCNC(=O)c1cc(NS(=O)(=O)Cc2ccccc2)ccc1Sc1ccccc1 [Example 8]
- IC50 [2]: > 100 µM
- IC50 ([1]; read-out: Trpysin II IC50): > 100 µM
- IC50 (human thrombin): > 100 µM
- IC50 (human factor Xa): > 100 µM

SMILES: O=C(Cc1c(F)ccc(NS(=O)(=O)Cc2ccccc2)c1F)NCC1CCNCC1 [Example 9]
- IC50 ([1]; read-out: Trpysin II IC50): 0.3 µM
- IC50 (human thrombin): > 30 µM

SMILES: CN(C)c1ccc(CNC(=O)Cc2c(F)ccc(NS(=O)(=O)Cc3ccccc3)c2F)cc1 [Example 10]
- IC50 ([1]; read-out: Trpysin II IC50): > 30 µM
- IC50 (human thrombin): > 30 µM
- IC50 (human factor Xa): > 30 µM

SMILES: O=C(Cc1c(F)ccc(NS(=O)(=O)Cc2ccccc2)c1F)NCc1ccncc1 [Example 11]
- IC50 ([1]; read-out: Trpysin II IC50): > 30 µM
- IC50 (human thrombin): > 30 µM
- IC50 (human factor Xa): > 30 µM

SMILES: O=C(Cc1c(F)ccc(NS(=O)(=O)Cc2ccccc2)c1F)NCCCn1ccnc1 [Example 12]
- IC50 ([1]; read-out: Trpysin II IC50): > 30 µM
- IC50 (human thrombin): > 30 µM

SMILES: N=C(N)c1cccc(CNC(=O)Cc2c(F)ccc(NS(=O)(=O)Cc3ccccc3)c2F)c1 [Example 13]
- IC50 ([1]; read-out: Trpysin II IC50): > 30 µM
- IC50 (human thrombin): > 30 µM
- IC50 (human factor Xa): > 30 µM

SMILES: N=C(N)c1ccc(CNC(=O)Cc2c(F)ccc(NS(=O)(=O)Cc3ccccc3)c2F)cc1 [Example 14]
- IC50 ([1]; read-out: Trpysin II IC50): 7.3 µM
- IC50 (human thrombin): ~30 µM

SMILES: N=C(N)NCCCCCNC(=O)Cc1c(F)ccc(NS(=O)(=O)Cc2ccccc2)c1F [Example 15]
- IC50 ([1]; read-out: Trpysin II IC50): > 30 µM
- IC50 (human thrombin): > 30 µM

SMILES: N=C(N)c1ccc(CNC(=O)Cc2c(F)ccc(NCCc3ccccc3)c2F)cc1 [Example 16]
- IC50 [2]: 16.4 µM
- IC50 ([1]; read-out: Trpysin II IC50): 0.8 µM
- IC50 (human thrombin): 1.6 µM
- Factor Xa percent inhibition (human factor Xa; at 30 (uM)): 1% at 30

SMILES: N=C(N)c1ccc(CNC(=O)Cc2c(-c3ccccc3)ccc(NCCc3ccccc3)c2F)cc1 [Example 17]
- IC50 [2]: 4 µM
- IC50 ([1]; read-out: Trpysin II IC50): 0.2 µM
- IC50 (human thrombin): 7 µM

SMILES: COc1c(NCCc2ccccc2)ccc(-c2ccccc2)c1CC(=O)NCc1ccc(C(=N)N)cc1 [Example 18]
- IC50 [2]: 25 µM
- IC50 ([1]; read-out: Trpysin II IC50): 0.5 µM
- IC50 (human thrombin): 9.5 µM
- IC50 (human factor Xa): > 30 µM

SMILES: N=C(N)c1ccc(CNC(=O)Cc2c(-c3ccccc3)ccc(NCCc3ccccc3)c2O)cc1 [Example 19]
- IC50 [2]: 2.7 µM
- IC50 ([1]; read-out: Trpysin II IC50): 0.2 µM
- IC50 (human thrombin): 7 µM

SMILES: N=C(N)c1ccc(CNC(=O)Cc2c(-c3cccc(N)c3)ccc(NCc3ccccc3)c2F)cc1 [Example 20]
- IC50 [2]: 0.67 µM
- IC50 ([1]; read-out: Trpysin II IC50): 0.2 µM
- IC50 (human thrombin): 9 µM
- IC50 (human factor Xa): > 30 µM

SMILES: CC(C)Nc1ccc(-c2cccc(N)c2)c(CC(=O)NCc2ccc(C(=N)N)cc2)c1F [Example 21]
- IC50 ([1]; read-out: Trpysin II IC50): < 0.04 µM
- Factor Xa percent inhibition (human factor Xa; concentration not given): 18%

SMILES: COc1c(NC(C)C)ccc(-c2ccccc2)c1CC(=O)NCc1ccc(C(=N)N)cc1 [Example 22]
- IC50 [2]: 14.7 µM
- IC50 ([1]; read-out: Trpysin II IC50): 0.1 µM
- IC50 (human thrombin): 7.9 µM
